Measurements taken from patent publication US4045298A, “Antibiotic XK-62-2 and process for production thereof” (priority 1972, dated 1977).
In brackets after ≈: the same amount, converted by molar mass. Read-outs that look alike come from different tables or passages of the source.

Assays:
[1] = system: specific enzyme system which inactivates gentamicin C1a or kanamycin by acetylating; type: biochemical, Pseudomonas aeruginosa
[2] = system: Proteus vulgaris ATCC 6897; assay: Minimum inhibitory concentration by agar dilution method; type: cell-based; conditions: ATCC6897, agar dilution
Excerpt: (§1) Antibacterial spectra of XK-62-2 by agar
(§2) The comparative in vitro activities of these antibiotics against various microorganisms of the genus Proteus are shown in the following Table 6.
(§3) Minimum inhibitory concentration
(§4) (γ/ml : by agar dilution method)

[3] = system: Pseudomonas aeruginosa KY 8511; assay: as above; type: cell-based; conditions: KY8511, clinical isolate, Table 7
Excerpt: as §3, §4

[4] = system: Pseudomonas aeruginosa KY 8510; assay: as above; type: cell-based
Excerpt: as §3, §4

[5] = system: Pseudomonas aeruginosa KY 8516; assay: as above; type: cell-based
Excerpt: as §3, §4

[6] = system: Pseudomonas aeruginosa KY 8514; assay: as above; type: cell-based; conditions: KY8514, clinical isolate, Table 7
Excerpt: as §3, §4

[7] = system: Pseudomonas aeruginosa KY 8520; assay: as above; type: cell-based; conditions: KY8520, clinical isolate, Table 7
Excerpt: as §3, §4

[8] = system: Pseudomonas aeruginosa KY 8515; assay: as above; type: cell-based; conditions: KY8515, clinical isolate, Table 7
Excerpt: as §3, §4

[9] = system: Pseudomonas aeruginosa KY 8562; assay: as above; type: cell-based; conditions: KY8562, clinical isolate, Table 7
Excerpt: as §3, §4

[10] = system: Pseudomonas aeruginosa KY 4276; assay: as above; type: cell-based; conditions: KY4276, clinical isolate, Table 7
Excerpt: as §3, §4

[11] = system: Pseudomonas aeruginosa KY 8512; assay: as above; type: cell-based; conditions: KY8512, clinical isolate, Table 7
Excerpt: as §3, §4

[12] = system: Bacillus cereus var. myccides ATCC 9463; assay: Antibacterial spectra by agar dilution method; type: cell-based; conditions: ATCC9463, Table 5, read-out: Minimum inhibitory concentration
Excerpt: as §1

[13] = system: Shigella sonnei ATCC 9290; assay: Antibacterial spectra by agar dilution method; type: cell-based; conditions: ATCC9290, Table 5, read-out: Minimum inhibitory concentration
Excerpt: as §1

Escherichia coli ATCC 26 = assay: Antibacterial spectra by agar dilution method; type: cell-based; conditions: ATCC26, Table 5, read-out: Minimum inhibitory concentration
Excerpt: as §1

Escherichia coli KY 8302 = assay: Antibacterial spectra by agar dilution method; type: cell-based; conditions: KY8302, resistant to chloramphenicol, streptomycin, kanamycin, paromomycin, tetracycline and spectinomycin, read-out: Minimum inhibitory concentration
Excerpt: as §1

[14] = system: Pseudomonas aeruginosa BMH No. 1; assay: Antibacterial spectra by agar dilution method; type: cell-based; conditions: BMHNO.1, Table 5, read-out: Minimum inhibitory concentration
Excerpt: as §1

[15] = system: Streptococcus faecalis ATCC 10541; assay: Antibacterial spectra by agar dilution method; type: cell-based; conditions: Enterococcus faecalis, ATCC10541, Table 5, read-out: Minimum inhibitory concentration
Excerpt: as §1

Escherichia coli KY 8310 = assay: Antibacterial spectra by agar dilution method; type: cell-based; conditions: KY8310, resistant to chloramphenicol, streptomycin, kanamycin, gentamicin, kanendomycin, paromomycin, tetracycline and spectinomycin, read-out: Minimum inhibitory concentration
Excerpt: as §1

[16] = system: Salmonella typhosa ATCC 9992; assay: Antibacterial spectra by agar dilution method; type: cell-based; conditions: Salmonella enterica, read-out: Minimum inhibitory concentration
Excerpt: as §1

[17] = system: Staphylococcus aureus KY 8957; assay: Antibacterial spectra by agar dilution method; type: cell-based; conditions: KY8957, resistant to chloramphenicol, streptomycin, kanendomycin, tetracycline and paromomycin, read-out: Minimum inhibitory concentration
Excerpt: as §1

[18] = system: Staphylococcus aureus KY 8956; assay: Antibacterial spectra by agar dilution method; type: cell-based; conditions: KY8956, resistant to streptomycin, paromomycin, tetracycline, erythromycin and oleandomycin, read-out: Minimum inhibitory concentration
Excerpt: as §1

[19] = system: Staphylococcus aureus ATCC 6538P; assay: Antibacterial spectra by agar dilution method; type: cell-based; conditions: ATCC6538P, Table 5, read-out: Minimum inhibitory concentration
Excerpt: as §1

[20] = system: Bacillus cereus ATCC 9634; assay: Antibacterial spectra by agar dilution method; type: cell-based; conditions: ATCC9634, Table 5, read-out: Minimum inhibitory concentration
Excerpt: as §1

Escherichia coli KY 8315 = assay: Antibacterial spectra by agar dilution method; type: cell-based; conditions: KY8315, resistant to streptomycin, kanamycin, paromomycin and neomycin, read-out: Minimum inhibitory concentration
Excerpt: as §1

[21] = system: Bacillus subtilis No. 10707; assay: Antibacterial spectra by agar dilution method; type: cell-based; conditions: Table 5, read-out: Minimum inhibitory concentration
Excerpt: as §1

[22] = system: Staphylococcus aureus KY 8953; assay: Antibacterial spectra by agar dilution method; type: cell-based; conditions: KY8953, resistant to streptomycin, kanamycin, paromomycin, tetracycline, neomycin, kanendomycin and erythromycin, read-out: Minimum inhibitory concentration
Excerpt: as §1

[23] = system: Klebsiella pneumoniae ATCC 10031; assay: Antibacterial spectra by agar dilution method; type: cell-based; conditions: ATCC10031, Table 5, read-out: Minimum inhibitory concentration
Excerpt: as §1

[24] = system: Staphylococcus aureus KY 8942; assay: Antibacterial spectra by agar dilution method; type: cell-based; conditions: KY8942, resistant to kanamycin, paromomycin and streptomycin, read-out: Minimum inhibitory concentration
Excerpt: as §1

Proteus rettgeri Booth = assay: Minimum inhibitory concentration by agar dilution method; type: cell-based; conditions: Providencia rettgeri; agar dilution; Table 6; read-out: Minimum inhibitory concentration
Excerpt: as §2, §3, §4

[25] = system: Proteus mirabilis Finland 9; assay: as above; type: cell-based; conditions: FINLAND9, agar dilution, Table 6, read-out: Minimum inhibitory concentration
Excerpt: as §2, §3, §4

[26] = system: Proteus rettgeri Hambrook; assay: as above; type: cell-based; conditions: Providencia rettgeri; agar dilution; Table 6; read-out: Minimum inhibitory concentration
Excerpt: as §2, §3, §4

Proteus morganii Jenkins = assay: as above; type: cell-based; conditions: Morganella morganii; agar dilution; Table 6; read-out: Minimum inhibitory concentration
Excerpt: as §2, §3, §4

[27] = system: Proteus mirabilis No. 825; assay: as above; type: cell-based; conditions: NO.825, agar dilution, Table 6, read-out: Minimum inhibitory concentration
Excerpt: as §2, §3, §4

Proteus vulgaris KY 4296 = assay: as above; type: cell-based; conditions: KY4296, Table 6
Excerpt: as §2, §3, §4

Proteus vulgaris KY 4297 = assay: as above; type: cell-based; conditions: KY4297, Table 6
Excerpt: as §2, §3, §4

[28] = vs gentamicin complex or gentamicin C1a

CNC[C@@H]1CC[C@@H](N)[C@@H](O[C@H]2[C@H](O)[C@@H](O[C@H]3OC[C@](C)(O)[C@H](NC)[C@H]3O)[C@H](N)C[C@@H]2N)O1 [XK-62-2]
Inactivation by acetylation (6'-NH2) [1]: free from acetylation | MIC ([2]; Table 5, read-out: Minimum inhibitory concentration): 0.03 µg/mL (≈ 0.0647 µM) | MIC ([2]; Table 6, read-out: Minimum inhibitory concentration): 0.04 µg/mL (≈ 0.0863 µM) | MIC [3]: > 42 µg/mL | Susceptibility of strain ([4]; KY 8510): sensitive | MIC ([4]; Pseudomonas aeruginosa, KY8510, agar dilution, clinical isolate, Table 7): 0.33 µg/mL (≈ 0.712 µM) | Antibacterial activity relative to gentamicin complex or gentamicin C1a [4, 28]: much higher antibacterial activity | Susceptibility of strain ([5]; KY 8516): sensitive | MIC ([5]; Pseudomonas aeruginosa, KY8516, agar dilution, clinical isolate, Table 7): 0.33 µg/mL (≈ 0.712 µM) | Antibacterial activity relative to gentamicin complex or gentamicin C1a [5, 28]: much higher antibacterial activity | MIC [6]: 0.55 µg/mL (≈ 1.19 µM) | MIC [7]: 0.33 µg/mL (≈ 0.712 µM) | MIC [8]: > 42 µg/mL | MIC [9]: > 42 µg/mL | MIC [10]: 0.33 µg/mL (≈ 0.712 µM) | MIC [11]: 0.33 µg/mL (≈ 0.712 µM) | MIC [12]: 0.0082 µg/mL (≈ 0.0177 µM) | MIC [13]: 0.07 µg/mL (≈ 0.151 µM) | MIC (Escherichia coli ATCC 26): 0.0082 µg/mL (≈ 0.0177 µM) | MIC (Escherichia coli KY 8302): 0.033 µg/mL (≈ 0.0712 µM) | MIC [14]: 0.53 µg/mL (≈ 1.14 µM) | MIC [15]: 1.05 µg/mL (≈ 2.27 µM) | MIC (Escherichia coli KY 8310): 1.05 µg/mL (≈ 2.27 µM) | MIC [16]: 0.018 µg/mL (≈ 0.0388 µM) | MIC [17]: 0.0021 µg/mL (≈ 0.00453 µM) | MIC [18]: < 0.001 µg/mL | MIC [19]: < 0.0041 µg/mL | MIC [20]: 0.016 µg/mL (≈ 0.0345 µM) | MIC (Escherichia coli KY 8315): 0.016 µg/mL (≈ 0.0345 µM) | MIC [21]: < 0.004 µg/mL | MIC [22]: 0.0041 µg/mL (≈ 0.00884 µM) | MIC [23]: 0.0082 µg/mL (≈ 0.0177 µM) | MIC [24]: 0.065 µg/mL (≈ 0.14 µM) | MIC (Proteus rettgeri Booth): 0.021 µg/mL (≈ 0.0453 µM) | MIC [25]: 0.04 µg/mL (≈ 0.0863 µM) | MIC [26]: 0.021 µg/mL (≈ 0.0453 µM) | MIC (Proteus morganii Jenkins): 0.04 µg/mL (≈ 0.0863 µM) | MIC [27]: 0.021 µg/mL (≈ 0.0453 µM) | MIC (Proteus vulgaris KY 4296): 0.021 µg/mL (≈ 0.0453 µM) | MIC (Proteus vulgaris KY 4297): 0.021 µg/mL (≈ 0.0453 µM)
